Article PMC4663524 (Toxins, 2015)
Where “and” joins values, the source holds several entries; their conditions need not be identical. Equal entries are not always repeated.

Legend:
[1] = DONS/DON pattern in standard solution, bolus solution and pig plasma; format: physicochemical; conditions: for Proportion in bolus solution: DONS standard mixed with physiological saline for IV bolus (pH 2.66); for Proportion in standard solution: DONS standard solution (pH 1.56); for Proportion in pig plasma: after IV 50 µg DONS mixture/kg BW
Experimental: (§1) Two different injection solutions were prepared for IV administration. […] After weighing, an individual amount was drawn up into syringes with a dose of 50 µg/kg BW. The concentrations of DONS 1, 2, and 3 in DONS standard solution were 3240, 1720, and 7300 µg/mL, respectively. […] Thereafter, the standard was mixed with physiological saline to prepare a 250 µg/mL DONS stock solution. The further handling was similar to DON.
Due to known dependency of DONS stability on pH value, we compared the pH of standard and bolus solutions. The determination was carried out with a pH meter (WTW GmbH, Weilheim, Germany). Both an addition of physiological saline and distilled water caused changes in pH value, and so shifts in DONS ratio took place.
(§2) For quantitative determination of DONS 1, 2, and 3 in plasma, an HPLC-MS/MS analysis was conducted on an Agilent 1200 (Agilent Technologies, Böblingen, Germany) series HPLC system coupled to a 4000 QTrap mass spectrometer (AB Sciex, Foster City, CA, USA). […] The retention times of DONS 1, 2, and 3 were 2.31, 4.71, and 5.88 min, respectively. Tandem mass spectrometric detection was carried out in negative ion mode after electrospray ionization at 600 °C (ion spray voltage: −4500 V). The method was validated in-house for all analytes based on the guidelines of the FDA and European community. Calibration graphs (0.3–480 ng/mL) were prepared and good linearity was achieved (r ≥ 0.99).

[2] = cited from earlier work; for pH range of stability: DONS 2: for 24 h
[3] = Plasma toxicokinetics after a single intravenous bolus (DONiv, DONSiv); format: in vivo, pigs; conditions: for Vd(area), apparent volume of distribution: DONS 1 or DONS 2, DONSiv 50 µg/kg BW; for peak concentration in plasma (mean of A + B): after DONSiv 50 µg/kg BW; for stability in plasma: after DONSiv injection
Experimental: (§3) The experiment was designed as a kinetic study. […] Due to the instability of DONS 2 and 3 upon evaporation to dryness, the standards of the three DONS were dissolved in water acidified with 2% formic acid.
(§4) A total of 16 castrated male pigs, crossbred German Landrace × Pietrain, were used for these kinetic experiments. After an adaption phase to the balance cages, eight animals underwent surgery per trial. Animals were equipped with two permanent intravenous catheters in the external vena jugularis for serial blood sampling. After surgery the animals were allowed to recover for one day. On test day, zero blood samples had to be collected from pigs before exposure. Zero blood samples served as reference values to which the data after oral or intravenous bolus related. Serial blood samples (10 mL) were drawn prior to feeding and after 15, 30, 60 and 90 min and then after two, three, four, six, eight, 10, 12, and 24 h for pigs receiving compounds by oral administration. For pigs dosed intravenously, shorter time intervals were chosen at the beginning: five, 10, 15, 20, 30, 45 min and then following the same intervals as for oral exposure. For a clear classification in result Table 1, Table 2, Table 3, Table 4, Table 5 and Table 6, we differentiated between IV- (intravenous bolus) and O- (oral bolus) animals. Due to repeated use of individuals it was numbered continuously.
as §1, §2
The LOD amounted to 0.22 ng/mL and the LOQ was 0.72 ng/mL.
A + B is the initial concentration at t = 0, i.e., C0, α, and β are the rate constant of distribution or elimination phase, respectively, and t the time (h). The non-linear curve fitting module of the Statistica for the Windows^TM operating system (StatSoft Inc., Tulsa, OK, USA) was used to fit the data to Equations (1) and (2).
Further kinetic parameters were derived from the fitted functions as also described by Prelusky et al.. The half-life was calculated as t1/2α=ln (2)/ka or α for absorption or distribution phase and t1/2β=ln(2)/kel or β for the elimination phase, respectively. […] The apparent volume of distribution by area (Vd(area)) following intravenous application was calculated by Vd(area) = D/AUC⋅t1/2β/ln(2) as an indicator of Vd corresponding to the elimination phase and thus covering large parts of the kinetics.
In addition, in order to evaluate the decomposition of the IV administered DONS mixture the DON-AUC was divided by the sum of individually estimated AUCs for DONS 1 and DONS 2 and declared as F. In each case, the AUCs were corrected for the administered dose.

[4] = DONS mixture added to uncontaminated diet
[5] = cited from earlier work
[6] = cited from earlier work; remark: listed apart in the source
[7] = Clinical symptoms after intravenous or oral bolus; format: in vivo, pigs; conditions: for clinical symptoms: pigs, after single bolus
Experimental: as §3, §4

[8] = DONS 1 or DONS 2 in plasma (DON equivalents), DONSiv 50 µg/kg BW, individual pigs IV6-11
[9] = DONS 1 or DONS 2 in plasma (DON equivalents), DONSiv 50 µg/kg BW, mean, n=6
[10] = DONS 1 or DONS 2 in plasma (DON equivalents), IV 50 µg DONS mixture/kg BW (DONSiv), individual pigs IV6-11
[11] = DONS 1 or DONS 2 in plasma, DONSiv 50 µg/kg BW, individual pigs IV6-11
[12] = DONS 1 or DONS 2 in plasma, DONSiv 50 µg/kg BW, mean, n=6
[13] = DON in plasma after DONSiv 50 µg/kg BW, individual pigs IV6-11
[14] = DON in plasma after DONSiv 50 µg/kg BW, mean, n=6
[15] = DON in plasma, IV 50 µg DON/kg BW, individual pigs IV 1-5, listed as DONiv
[16] = DON in plasma, IV 50 µg DON/kg BW, mean, n=5

SMILES: CC12CC3(O)[C@@H]4O[C@H]([C@H]1S(=O)(=O)O)[C@](CO)([C@H](O)C2=O)[C@@]3(C)C[C@H]4O [DONS 1]
- Proportion in bolus solution [1]: 69.75%
- Proportion in standard solution [1]: 26.43%
- Proportion in pig plasma [1]: 59.49%
- pH range of stability [2]: 2–10
- Vd(area), apparent volume of distribution ([3]; individual pigs IV6-11): 0.35 L/kg and 0.48 L/kg and 0.51 L/kg and 0.37 L/kg and 0.44 L/kg and 0.42 L/kg
- Vd(area), apparent volume of distribution ([3]; mean, n=6): 0.4 L/kg
- AUC, area under the curve [3, 8]: 179.7 ng·h/mL and 143.2 ng·h/mL and 167.6 ng·h/mL and 187.8 ng·h/mL and 163.4 ng·h/mL and 167.8 ng·h/mL
- B [3, 8]: 74.30 ng/mL and 55.10 ng/mL and 61.46 ng/mL and 75.58 ng/mL and 67.17 ng/mL and 69.69 ng/mL
- A [3, 9]: 104.2 ng/mL
- AUC, area under the curve [3, 9]: 168.2 ng·h/mL
- B [3, 9]: 67.2 ng/mL
- A [3, 10]: 86.78 ng/mL and 61.27 ng/mL and 60.09 ng/mL and 257.42 ng/mL and 79.19 ng/mL and 80.20 ng/mL
- t1/2β, half-life of elimination [3, 11]: 0.87 h and 0.96 h (2×) and 1.18 h and 0.99 h and 0.98 h
- α, rate constant of distribution phase [3, 11]: 11.35 h⁻¹ and 13.56 h⁻¹ and 4.94 h⁻¹ and 20.41 h⁻¹ and 4.55 h⁻¹ and 10.96 h⁻¹
- β, rate constant of elimination phase [3, 11]: 0.80 1/h and 0.72 1/h (2×) and 0.59 1/h and 0.70 1/h and 0.71 1/h
- α, rate constant of distribution phase [3, 12]: 11.0 h⁻¹
- β, rate constant of elimination phase [3, 12]: 0.7 h⁻¹
- peak concentration in plasma (mean of A + B) [3]: 171.4 ng/mL
- stability in plasma [3]: stable in plasma
- detection in plasma after oral DONSpo [4]: rarely, traces of DONS 1 and 2 (<LOQ)

SMILES: C[C@H]1[C@H](S(=O)(=O)O)[C@H]2O[C@@H]3[C@H](O)C[C@](C)([C@]24COC1(O)[C@H]4O)[C@]31CO1 [DONS 2]
- Proportion in bolus solution [1]: 10.69%
- Proportion in standard solution [1]: 14.03%
- Proportion in pig plasma [1]: 28.25%
- pH range of stability [2]: 2–7
- pH values at which back-formation or degradation to DON is observed [2]: 8–10
- Vd(area), apparent volume of distribution ([3]; individual pigs IV6-11): 0.68 L/kg and 0.96 L/kg and 0.67 L/kg and 1.08 L/kg and 0.53 L/kg and 0.69 L/kg
- Vd(area), apparent volume of distribution ([3]; mean, n=6): 0.8 L/kg
- AUC, area under the curve [3, 8]: 81.5 ng·h/mL and 74.6 ng·h/mL and 80.1 ng·h/mL and 78.1 ng·h/mL and 105.8 ng·h/mL and 94.6 ng·h/mL
- B [3, 8]: 32.87 ng/mL and 20.05 ng/mL and 29.84 ng/mL and 19.94 ng/mL and 34.75 ng/mL and 25.99 ng/mL
- A [3, 9]: 52.7 ng/mL
- AUC, area under the curve [3, 9]: 85.8 ng·h/mL
- B [3, 9]: 27.2 ng/mL
- A [3, 10]: 46.01 ng/mL and 23.41 ng/mL and 43.30 ng/mL and 34.43 ng/mL and 126.49 ng/mL and 42.60 ng/mL
- t1/2β, half-life of elimination [3, 11]: 0.77 h (2×) and 0.99 h and 0.74 h and 1.17 h and 0.91 h
- α, rate constant of distribution phase [3, 11]: 12.01 h⁻¹ and 4.93 h⁻¹ and 9.99 h⁻¹ and 4.03 h⁻¹ and 17.39 h⁻¹ and 4.41 h⁻¹
- β, rate constant of elimination phase [3, 11]: 0.90 1/h (2×) and 0.70 1/h and 0.93 1/h and 0.59 1/h and 0.76 1/h
- α, rate constant of distribution phase [3, 12]: 8.8 h⁻¹
- β, rate constant of elimination phase [3, 12]: 0.8 h⁻¹
- peak concentration in plasma (mean of A + B) [3]: 79.9 ng/mL
- stability in plasma [3]: stable in plasma
- detection in plasma after oral DONSpo [4]: rarely, traces of DONS 1 and 2 (<LOQ)

SMILES: CC1=C[C@H]2O[C@@H]3[C@H](O)C[C@](C)([C@@]2(CO)[C@H](O)C1=O)[C@]31CO1 [DON, deoxynivalenol]
- Proportion in bolus solution [1]: 19.26%
- Proportion in standard solution [1]: 0%
- Proportion in pig plasma [1]: 10.45%
- mean maximum concentration of DON in plasma (A + B) ([3]; DON after DONSiv 50 µg/kg BW): 17.33 ng/mL
- B [3, 13]: 7.13 ng/mL and 5.49 ng/mL and 5.08 ng/mL and 2.91 ng/mL and 6.48 ng/mL and 3.17 ng/mL
- F, release rate of DON from DONS [3, 13]: 12.5% and 17.3% (2×) and 18.2% and 23.8% and 15.3%
- α, rate constant of distribution phase [3, 13]: 5.02 h⁻¹ and 3.23 h⁻¹ and 4.83 h⁻¹ and 1.72 h⁻¹ and 3.99 h⁻¹ and 2.25 h⁻¹
- β, rate constant of elimination phase [3, 13]: 0.32 h⁻¹ and 0.22 h⁻¹ and 0.34 h⁻¹ and 0.17 h⁻¹ and 0.29 h⁻¹ and 0.27 h⁻¹
- A [3, 14]: 12.29 ng/mL
- B [3, 14]: 5.04 ng/mL
- F, release rate of DON from DONS [3, 14]: 17.37%
- α, rate constant of distribution phase [3, 14]: 3.51 h⁻¹
- β, rate constant of elimination phase [3, 14]: 0.27 h⁻¹
- A ([3]; DON in plasma after IV 50 µg DONS mixture/kg BW (DONSiv), individual pigs IV6-11): 12.44 ng/mL and 8.40 ng/mL and 17.13 ng/mL and 12.74 ng/mL and 12.50 ng/mL and 10.51 ng/mL
- A ([3]; DON in plasma, IV 50 µg DON/kg BW, two-compartment fit, individual pigs IV 1-5, listed as DONiv): 136.4 ng/mL and 624.9 ng/mL and 121.9 ng/mL and 56.2 ng/mL and 74.5 ng/mL
- B [3, 15]: 96.5 ng/mL and 83.6 ng/mL and 73.5 ng/mL and 64.5 ng/mL and 84.1 ng/mL
- α, rate constant of distribution phase [3, 15]: 7.35 h⁻¹ and 18.74 h⁻¹ and 13.71 h⁻¹ and 3.88 h⁻¹ and 6.29 h⁻¹
- β, rate constant of elimination phase [3, 15]: 0.36 h⁻¹ and 0.33 h⁻¹ and 0.35 h⁻¹ and 0.34 h⁻¹ and 0.38 h⁻¹
- A [3, 16]: 202.8 ng/mL
- B [3, 16]: 80.5 ng/mL
- α, rate constant of distribution phase [3, 16]: 9.99 h⁻¹
- β, rate constant of elimination phase [3, 16]: 0.35 h⁻¹
- initial concentration A + B of DON at t = 0 ([5]; IV DON): 46.2–139.9 ng/mL plasma
- maximum concentration cmax ([5]; oral, DON in wheat): 15.2 ng/mL
- tmax ([5]; oral, DON in wheat): 1.65 h
- total DON bioavailability ([5]; single oral dose, DON-contaminated wheat): 91.5% ± 27.4%
- share of orally-administered DON absorbed in the stomach and the first third of the small intestine [6]: ~90%
- number of retching and vomiting episodes ([7]; IV 50 µg DON/kg BW): between three and nine times
- time of retching and vomiting after bolus ([7]; IV 50 µg DON/kg BW): 6 to 16 min
- clinical symptoms [7]: sickness and emesis within minutes
- clinical symptoms ([7]; listed as DONiv): retching and vomiting
